Assay [1] addresses T1, glucocorticoid receptor (Homo sapiens, UniProt P04150).
T1 construct: a partially purified full length glucocorticoid receptor
T1 sequence (P04150 1-777): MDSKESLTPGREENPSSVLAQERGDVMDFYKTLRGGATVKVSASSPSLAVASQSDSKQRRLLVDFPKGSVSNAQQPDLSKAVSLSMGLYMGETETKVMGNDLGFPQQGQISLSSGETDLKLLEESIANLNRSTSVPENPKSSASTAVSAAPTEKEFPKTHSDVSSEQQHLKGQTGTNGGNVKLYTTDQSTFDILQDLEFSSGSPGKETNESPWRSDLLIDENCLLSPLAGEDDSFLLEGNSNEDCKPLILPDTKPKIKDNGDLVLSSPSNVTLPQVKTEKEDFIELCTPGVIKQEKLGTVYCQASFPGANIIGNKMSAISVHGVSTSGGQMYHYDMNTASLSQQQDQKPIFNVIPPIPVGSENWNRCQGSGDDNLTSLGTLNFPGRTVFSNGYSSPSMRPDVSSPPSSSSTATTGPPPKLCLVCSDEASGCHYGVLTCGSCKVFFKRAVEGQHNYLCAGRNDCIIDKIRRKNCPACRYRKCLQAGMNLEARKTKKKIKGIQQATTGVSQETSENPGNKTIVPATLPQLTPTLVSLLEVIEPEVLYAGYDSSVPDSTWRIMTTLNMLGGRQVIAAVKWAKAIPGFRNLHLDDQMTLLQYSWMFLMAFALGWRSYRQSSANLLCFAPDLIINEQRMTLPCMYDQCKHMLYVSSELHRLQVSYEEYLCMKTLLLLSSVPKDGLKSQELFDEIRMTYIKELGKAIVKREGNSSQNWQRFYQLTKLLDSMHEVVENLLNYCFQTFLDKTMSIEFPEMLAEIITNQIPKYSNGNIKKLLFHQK
The assay is described as follows: Glucocorticoid Receptor Binding Assay (fluorescence polarisation, displacement of Alexa 555 labelled dexamethasone derivative). The note with it: at least once in this assay; read-out: glucocorticoid binding pIC50 (converted). The procedure:
Compounds were solvated and diluted in DMSO, and transferred directly into assay plates. Fluorescent dexamethasone and a partially purified full length glucocorticoid receptor were added to the plates, together with buffer components to stabilise the GR protein and incubated at room temperature for 2 hr in the dark. Binding of each compound was assessed by analysing the displacement of fluorescent ligand by measuring the decrease in fluorescence polarisation signal from the mixture.

Assay [2] addresses T2, GR (Homo sapiens, UniProt P04150).
T2 construct: endogenous in cells; host or cells: A549 (human lung carcinoma, ECACC No. 86012804), stably transfected with reporter plasmids only
T2 sequence (P04150 1-777): T1 sequence (P04150 1-777)
The assay is described as follows: GR Functional Assay - NFκB Assay (A549 SPAP cells, TNFα stimulated). It counts as cell-based. The note with it: for Emax: agonists, read-out: average maximum asymptote in the NFkB assay. The procedure:
Stimulation of the cell line with TNFα results in intracellular signal transduction and ultimately translocation of NFκB into the nucleus. This activates the inserted DNA sequence resulting in transcription of the integrated SPAP gene, which is quantified using a calorimetric assay. […] The stably transfected cell line was grown as a monolayer in DMEM supplemented with FCS-HI (10%), Non-essential amino acids (1%), L-Glutamine (2 mM), Pen/Strep (1%) and Geneticin (50 mg/ml).
A 70% confluent T225 flask of A549 SPAP cells was harvested by centrifugation for 5 mins at 200 g, resuspended in assay buffer (DMEM supplemented with 10% FCS 2×HI, 2 mM L-Glutamine, 1% Pen/Strep and Non essential amino acids) and diluted to 0.16×10^6/ml. 60 μl of cell solution was dispensed to each well of clear Nunc 384-well plates, containing compound at the required concentration. […] Plates were equilibrated to room temperature for 1 hr prior to the addition of 25 μl of pNPP buffer (1M Diethanolamine pH 9.8, 0.5 mM MgCl2, 0.28M NaCl, 2 mg/ml pNPP) to each well of assay plates.

Assay [3] concerns the target T2, GR. As to the kind of experiment: GR Agonist Assay - MMTV Assay (A549 MMTV cells, renilla luciferase reporter). It is filed as cell-based. The note with it: 6 h, agonists, read-out: average maximum asymptote in the MMTV agonist assay. The procedure:
Stimulation of the cell line with GR agonists results in intracellular signal transduction and ultimately translocation of GR into the nucleus. This activates the inserted DNA sequence resulting in transcription of the integrated luciferase gene, which is quantified using a light emission. The stably transfected cell line was grown as a monolayer in DMEM supplemented with FCS-HI (10%), Non-essential amino acids (1%), L-Glutamine (2 mM), Pen/Strep (1%) and Geneticin (50 mg/ml).
A 90% confluent T175 flask of A549 MMTV cells was harvested by centrifugation for 5 min at 200 g, resuspended in assay buffer (DMEM supplemented with 10% FCS 2×HI, 2 mM Glutamax, Non essential amino acids and 25 mM HEPES) and diluted to 0.1×10^6/ml. 70 μl of cell solution was dispensed to each well of white Nunc 384-well plates, containing compound at the required concentration. […] The plates were covered to protect the reagents from light, and then incubated at room temperature for approximately 15 mins before reading them on a Viewlux.
In general terms: Reporter assays use an easily measured gene product as a stand-in for the process of interest.

[4] abbreviates: at least once, examples listed as agonists in NFkB and MMTV assays, read-out: potency pIC50 in the NFKB assay (converted).
Setting [5] is: at least once in the NFkB assay, A549 SPAP cells, read-out: pIC50 in the NFkB assay (converted).

Like-named read-outs stand apart in the source and are kept apart here. A value given as a limit tells only on which side of the number the result lay.

For the compound `Nc1c(C(=O)NCC(O)(CN(CCF)C(=O)c2ccccc2C(F)(F)F)C(F)(F)F)cnn1-c1ccc(F)cc1` (racemic) [Example 10 (racemic), 5-amino-1-(4-fluorophenyl)-N-{3,3,3-trifluoro-2-[((2-fluoroethyl){[2-(trifluoromethyl)phenyl]carbonyl}amino)methyl]-2-hydroxypropyl}-1H-pyrazole-4-carboxamide], the IC50 in assay [1] was less than 1000 nM; in assay [2] (setting [4]), less than 316 nM. Further, the Emax in assay [2] (A549 SPAP cells) and in assay [3] was no less than 40% throughout.

Turning to `Nc1c(C(=O)NCC(O)(CN(CCF)C(=O)c2ccccc2OC(F)F)C(F)(F)F)cnn1-c1ccc(F)cc1` (racemic) [Example 11 (racemic), 5-amino-N-(2-{[({2-[(difluoromethyl)oxy]phenyl}carbonyl) (2-fluoroethyl)amino]methyl}-3,3,3-trifluoro-2-hydroxypropyl)-1-(4-fluorophenyl)-1H-pyrazole-4-carboxamide], the Emax in assay [2] (A549 SPAP cells) and in assay [3] was no less than 40% in each case. The IC50 in assay [2] (setting [4]) is less than 316 nM.

`CCN(CC(O)(CNC(=O)c1cnn(-c2ccc(F)cc2)c1N)C(F)(F)F)C(=O)c1ccccc1OC(F)F` (racemic) [Example 12 (racemic), 5-amino-N-(2-{[({2-[(difluoromethyl)oxy]phenyl}carbonyl) (ethyl)amino]methyl}-3,3,3-trifluoro-2-hydroxypropyl)-1-(4-fluorophenyl)-1H-pyrazole-4-carboxamide]: the IC50 in assay [1] is less than 1000 nM; in assay [2] (setting [4]), less than 316 nM. The Emax in assay [2] (A549 SPAP cells) and in assay [3] was no less than 40% throughout.

With `CCN(CC(O)(CNC(=O)c1cnn(-c2ccc(F)cc2)c1N)C(F)(F)F)C(=O)c1ccccc1C(C)=O` (racemic) [Example 13 (racemic), N-(2-{[[(2-acetylphenyl)car-bonyl](ethyl)amino]methyl}-3,3,3-trifluoro-2-hydroxypropyl)-5-amino-1-(4-fluorophenyl)-1H-pyrazole-4-carboxamide], the figures for the IC50 in assay [1] and in assay [2] (setting [4]) were less than 1000 nM and less than 316 nM, respectively. Besides, the Emax in assay [2] (A549 SPAP cells) and in assay [3] was no less than 40% throughout.

As to `CCN(CC(O)(CNC(=O)c1cnn(-c2ccc(F)cc2)c1N)C(F)(F)F)C(=O)c1ccc(Cl)cc1` (racemic) [Example 19 (racemic), 5-amino-N-(2-{[[(4-chlorophenyl)car-bonyl](ethyl)amino]methyl}-3,3,3-trifluoro-2-hydroxypropyl)-1-(4-fluorophenyl)-1H-pyrazole-4-carboxamide], in assay [1], the IC50 was less than 1000 nM.

As to `CCN(CC(O)(CNC(=O)c1cnn(-c2ccc(F)cc2)c1N)C(F)(F)F)C(=O)c1ccc(F)c(F)c1` (racemic) [Example 21 (racemic), 5-amino-N-(2-{[[(3,4-difiuorophenyl)car-bonyl](ethyl)amino]methyl}-3,3,3-trifluoro-2-hydroxypropyl)-1-(4-fluorophenyl)-1H-pyrazole-4-carboxamide], the IC50 in assay [1] and in assay [2] (setting [5]) was less than 1000 nM throughout.

For `CCN(CC(O)(CNC(=O)c1cnn(-c2ccc(F)cc2)c1N)C(F)(F)F)C(=O)c1cccc(C(C)=O)c1` (racemic) [Example 22 (racemic), N-(2-{[[(3-acetylphenyl)car-bonyl](ethyl)amino]methyl}-3,3,3-trifluoro-2-hydroxypropyl)-5-amino-1-(4-fluorophenyl)-1H-pyrazole-4-carboxamide], in assay [1], the IC50 is less than 1000 nM.

As to `CN(CC(O)(CNC(=O)c1cnn(-c2ccc(F)cc2)c1N)C(F)(F)F)C(=O)c1ccccc1` (racemic) [Example 25 (racemic), 5-amino-1-(4-fluorophenyl)-N-(3,3,3-trifluoro-2-hydroxy-2-{[methyl(phenylcarbonyl)amino]methyl}propyl)-1H-pyrazole-4-carboxamide], the IC50 in assay [1] and in assay [2] (setting [5]) was less than 1000 nM throughout.

`CN(CC(O)(CNC(=O)c1cnn(-c2ccc(F)cc2)c1N)C(F)(F)F)C(=O)c1cccc(C(F)(F)F)c1` (racemic) [Example 26 (racemic), 5-amino-1-(4-fluorophenyl)-N-{3,3,3-trifluoro-2-hydroxy-2-[(methyl{[3-(trifluoromethyl)phenyl]carbonyl}amino)methyl]propyl}-1H-pyrazole-4-carboxamide]: the IC50 in assay [1] was less than 1000 nM.

With `CN(CC(O)(CNC(=O)c1cnn(-c2ccc(F)cc2)c1N)C(F)(F)F)C(=O)c1ncccc1F` (racemic) [Example 29 (racemic), N-{2-[({[5-amino-1-(4-fluorophenyl)-1H-pyrazol-4-yl]carbonyl}amino)methyl]-3,3,3-trifluoro-2-hydroxypropyl}-3-fluoro-N-methyl-2-pyridinecarboxamide], in assay [2] (setting [5]), the IC50 was less than 1000 nM.

`CCN(CC(O)(CNC(=O)c1cnn(-c2ccccc2Cl)c1N)C(F)(F)F)C(=O)c1ccccc1` (racemic) [Example 36 (racemic), 5-amino-1-(2-chlorophenyl)-N-(2-{[ethyl(phenylcar-bonyl)amino]methyl}-3,3,3-trifluoro-2-hydroxypropyl)-1H-pyrazole-4-carboxamide]: the IC50 in assay [1] was less than 1000 nM.

For the compound `CN(CC(O)(CNC(=O)c1cnn(-c2ccc(F)cc2)c1N)C(F)(F)F)C(=O)c1cccc2cccnc12` (racemic) [Example 42 (racemic), N-{2-[({[5-amino-1-(4-fluorophenyl)-1H-pyrazol-4-yl]carbonyl}amino)methyl]-3,3,3-trifluoro-2-hydroxypropyl}-N-methyl-8-quinolinecarboxamide], the Emax in assay [2] (A549 SPAP cells) and in assay [3] was no less than 40% throughout. Besides, the IC50 in assay [2] (setting [4]) is less than 316 nM.

As for `Nc1c(C(=O)NCC(O)(CN(CCF)C(=O)c2ccccc2)C(F)(F)F)cnn1-c1ccc(F)cc1` (single isomer, unassigned) [Example 1 Enantiomer 2, 5-Amino-1-(4-fluorophenyl)-N-(3,3,3-trifluoro-2-{[(2-fluoroethyl)(phenylcarbonyl)amino]methyl}-2-hydroxypropyl)-1H-pyrazole-4-carboxamide], the Emax in assay [2] (A549 SPAP cells) and in assay [3] was no less than 40% each time. Also, in assay [2] (setting [4]), the IC50 is less than 316 nM.

Turning to `CCN(CC(O)(CNC(=O)c1cnn(-c2ccc(F)cc2)c1N)C(F)(F)F)C(=O)c1ccccc1` (single isomer, unassigned) [Example 14 Enantiomer 2, 5-amino-N-(2-{[ethyl(phenylcar-bonyl)amino]methyl}-3,3,3-trifluoro-2-hydroxypropyl)-1-(4-fluorophenyl)-1H-pyrazole-4-carboxamide], the Emax in assay [2] (A549 SPAP cells) and in assay [3] was no less than 40% each time. In addition, the IC50 was less than 1000 nM in assay [2] (setting [5]) and less than 316 nM in assay [2] (setting [4]).
